Measured values published in patent US4048333A (priority 1971, dated 1977).

What was measured:
poliovirus 1 [1] = format: cell-based, poliovirus 1 (FL cells); conditions: maximum subtoxic concentration; for Results from one-step virus growth cycle experiments, PFU/ml: control 1.2×10^9; for Results from one-step virus growth cycle experiments, % of inhibition: virus yield vs control
echovirus 19 = assay: one-step virus growth cycle experiments, echovirus 19; format: cell-based, echovirus 19 (FL cells); conditions: maximum subtoxic concentration; for Results from the one-step virus growth cycle experiments, PFU/ml: control 2.6×10^9; for Results from the one-step virus growth cycle experiments, % of inhibition: virus yield vs control
[2] = system: coxsackievirus B1, B3, A6 and A7; assay: animal or person; format: in vivo, newborn mice; conditions: for ED50: Enterovirus B, B1, in Mus musculus, sc, read-out: ED50 dose; for antiviral activity on experimental Coxsackie infections (in words): mouse, in vivo; for retardation of the course of the infection: newborn mice, 3-10 LD50, subcutaneous once daily
[3] = acute toxicity for mice (LD50, Pershin method); conditions: mouse, in vivo; for LD50: mice, Pershin method
[4] = acute toxicity for rats (LD50, Pershin method); conditions: rat, in vivo, ip, intraperitoneal
rats = assay: subacute toxicity for rats; format: in vivo; conditions: intraperitoneal, 200 mg/kg daily for 30 days
pregnant female rats = assay: teratogenic effect in pregnant female rats; format: in vivo; conditions: intraperitoneal, daily doses of 100 mg/kg
coxsackievirus B1 = format: cell-based, coxsackievirus B1 (FL cells)
FMD virus type C = format: cell-based, FMD virus type C (calf kidney primary cultures)
FMD virus = system: FMD virus; design: species or system guinea pigs; conditions: guinea pig, in vivo
FMD = system: FMD; design: species or system newborn mice; conditions: mouse, in vivo
[5] = acute toxicity / selectivity index, species not stated; conditions: in vivo; species and route not given
poliovirus 1 [6] = format: cell-based, poliovirus 1 (FL cells); conditions: FL cells, 48 hour incubation

Compound: S=C(Nc1ccccc1)Nc1cnc2ccccc2c1 [Example 1]
- Results from one-step virus growth cycle experiments, PFU/ml (poliovirus 1 [1]): 3.3×10^8 PFU/ml
- Results from one-step virus growth cycle experiments, % of inhibition (poliovirus 1 [1]): 67.00%

Compound: Cc1cccc(NC(=S)Nc2ccccc2)c1 [N-phenyl-N'-3-tolylthiourea]
- Results from one-step virus growth cycle experiments, % of inhibition (poliovirus 1 [1]): 95-99%

Compound: Oc1cccc(NC(=S)Nc2ccccc2)c1 [Example 19]
- Results from the one-step virus growth cycle experiments, PFU/ml (echovirus 19): 2×10^6 PFU/ml
- Results from the one-step virus growth cycle experiments, % of inhibition (echovirus 19): 99.92%

Compound: O=C(O)c1ccc(NC(=S)Nc2ccccc2)cc1O [Example 4, N-phenyl-N'-4-carboxy-5-hydroxyphenylthiourea]
- Results from one-step virus growth cycle experiments, PFU/ml (poliovirus 1 [1]): < 1×10^6 PFU/ml
- Results from one-step virus growth cycle experiments, % of inhibition (poliovirus 1 [1]): > 99.92%
- Results from the one-step virus growth cycle experiments, % of inhibition (echovirus 19): above 99%
- ED50 [2]: 43.3 mg/kg
- antiviral activity on experimental Coxsackie infections (in words) [2]: marked antiviral activity
- retardation of the course of the infection [2]: 2 to 3 days
- LD50 ([3]; ip, intraperitoneal): 550 mg/kg
- LD50 ([3]; sc, subcutaneous): > 1000 mg/kg
- selectivity ratio ([3]; LD50 /ED50, read-out: selectivity index (LD50 /ED50)): ≥ 23
- LD50 [4]: 734 mg/kg
- subacute toxicity: changes in general state, behaviour, weight, blood pattern (rats): no changes in the general state and behaviour of the animals, or in their weight, the blood pattern, etc. were observed
- teratogenic effect (pregnant female rats): No teratogenic effect

Compound: O=C(O)c1ccccc1NC(=S)Nc1ccccc1 [Example 3]
- Results from one-step virus growth cycle experiments, PFU/ml (poliovirus 1 [1]): 5.9×10^7 PFU/ml
- Results from one-step virus growth cycle experiments, % of inhibition (poliovirus 1 [1]): 95.09%

Compound: O=C(O)CCCNC(=S)Nc1ccccc1 [Example 8, γ-phenylthioureidobutyric acid]
- Results from one-step virus growth cycle experiments, PFU/ml (poliovirus 1 [1]): 1.5×10^7 PFU/ml
- Results from the one-step virus growth cycle experiments, PFU/ml (coxsackievirus B1): ≤ 1×10^6 PFU/ml
- Results from the one-step virus growth cycle experiments, PFU/ml (echovirus 19): 5× 10^6 PFU/ml
- Results from the one-step virus growth cycle experiments, % of inhibition (echovirus 19; listed as 21): 99.81%
- Results from the one-step virus growth cycle experiments, % of inhibition (echovirus 19; listed as μ-phenylthioureidobutyric acid): above 99%

Compound: Oc1ccc(NC(=S)Nc2ccccc2)cc1 [Example 24, N-phenyl-N'-4-hydroxyphenylthiourea]
- Results from the one-step virus growth cycle experiments, % of inhibition (FMD virus type C): 99.65%
- Results from the one-step virus growth cycle experiments, PFU/ml (FMD virus type C): 2.5×10^4 PFU/ml
- reduction of the number of ailing animals compared with the placebo group (FMD virus): reduces the number of ailing animals two to three and a half times

Compound: O=C(O)c1ccc(NC(=S)Nc2ccccc2)cc1O [Example 12]
- Results from the one-step virus growth cycle experiments, PFU/ml (coxsackievirus B1): ≤ 1×10^6 PFU/ml

Compound: O=C(O)c1ccccc1NC(=S)Nc1ccccc1 [Example 17]
- Results from the one-step virus growth cycle experiments, PFU/ml (echovirus 19): 5×10^6 PFU/ml
- Results from the one-step virus growth cycle experiments, % of inhibition (echovirus 19): 99.81%

Compound: O=[N+]([O-])c1ccc(O)c(NC(=S)Nc2ccccc2)c1 [Example 20, N-phenyl-N'-2-hydroxy-5-nitrophenylthiourea]
- Results from the one-step virus growth cycle experiments, PFU/ml (echovirus 19): 5.9×10^7 PFU/ml
- Results from the one-step virus growth cycle experiments, % of inhibition (echovirus 19): 97.73%

Compound: O=[N+]([O-])c1ccc(O)c(NC(=S)Nc2ccccc2)c1 [Example 7]
- Results from one-step virus growth cycle experiments, PFU/ml (poliovirus 1 [1]): 3.5×10^8 PFU/ml
- Results from one-step virus growth cycle experiments, % of inhibition (poliovirus 1 [1]): 70.83%

Compound: Oc1ccc(NC(=S)Nc2ccccc2)cc1 [Example 6]
- Results from one-step virus growth cycle experiments, PFU/ml (poliovirus 1 [1]): 3.7×10^8 PFU/ml
- Results from one-step virus growth cycle experiments, % of inhibition (poliovirus 1 [1]): 69.17%

Compound: CC(=O)c1ccc(NC(=S)Nc2ccccc2)cc1 [N-phenyl-N'-acetylphenylthiourea]
- Results from one-step virus growth cycle experiments, % of inhibition (poliovirus 1 [1]): 95-99%

Compound: Oc1cccc(NC(=S)Nc2ccccc2)c1 [Example 22, N-phenyl-N'-3-hydroxyphenylthiourea]
- Results from the one-step virus growth cycle experiments, % of inhibition (echovirus 19): above 99%
- Results from the one-step virus growth cycle experiments, % of inhibition (FMD virus type C): 97.92%
- Results from the one-step virus growth cycle experiments, PFU/ml (FMD virus type C): 1.5×10^5 PFU/ml
- ED50 [2]: 86.6 mg/kg
- antiviral activity on experimental Coxsackie infections (in words) [2]: marked antiviral activity
- retardation of the course of the infection [2]: 2 to 3 days
- animals in which development of FMD encephalitis is prevented (FMD): 33.3%
- LD50 [5]: 1000 mg/kg

Compound: Oc1cccc(NC(=S)Nc2ccccc2)c1 [Example 13]
- Results from the one-step virus growth cycle experiments, PFU/ml (coxsackievirus B1): ≤ 1×10^6 PFU/ml

Compound: Oc1cccc(NC(=S)Nc2ccccc2)c1 [Example 5]
- Results from the gradient plaque-inhibition test (poliovirus 1 [6]): + +
- Results from one-step virus growth cycle experiments, PFU/ml (poliovirus 1 [1]): 7×10^6 PFU/ml
- Results from one-step virus growth cycle experiments, % of inhibition (poliovirus 1 [1]): 99.42%

Compound: S=C(Nc1ccccc1)Nc1cccc2cccnc12 [Example 2]
- Results from one-step virus growth cycle experiments, PFU/ml (poliovirus 1 [1]): 5.2×10^8 PFU/ml
- Results from one-step virus growth cycle experiments, % of inhibition (poliovirus 1 [1]): 48.00%

Compound: Cc1cccc(NC(=S)Nc2ccccc2)c1 [Example 9]
- Results from one-step virus growth cycle experiments, PFU/ml (poliovirus 1 [1]): 1.4×10^7 PFU/ml
- Results from one-step virus growth cycle experiments, % of inhibition (poliovirus 1 [1]): 98.79%

Compound: O=C(O)c1ccccc1NC(=S)Nc1ccccc1 [N-phenyl-N'-2-carboxyphenylthiourea]
- Results from one-step virus growth cycle experiments, % of inhibition (poliovirus 1 [1]): 95-99%
- Results from the one-step virus growth cycle experiments, % of inhibition (echovirus 19): above 99%

Compound: CC(=O)c1ccc(NC(=S)Nc2ccccc2)cc1 [Example 10]
- Results from one-step virus growth cycle experiments, PFU/ml (poliovirus 1 [1]): 4.6×10^7 PFU/ml
- Results from one-step virus growth cycle experiments, % of inhibition (poliovirus 1 [1]): 96.17%

Compound: O=C(O)c1ccc(NC(=S)Nc2ccccc2)cc1O [Example 18]
- Results from the one-step virus growth cycle experiments, PFU/ml (echovirus 19): < 1×10^6 PFU/ml
- Results from the one-step virus growth cycle experiments, % of inhibition (echovirus 19): > 99.96%

Compound: S=C(Nc1ccccc1)Nc1ccc(Cl)cc1NC(=S)Nc1ccccc1 [Example 11]
- Results from one-step virus growth cycle experiments, PFU/ml (poliovirus 1 [1]): 4.3×10^8 PFU/ml
- Results from one-step virus growth cycle experiments, % of inhibition (poliovirus 1 [1]): 57.00%

Compound: Oc1ccc(NC(=S)Nc2ccccc2)cc1 [Example 14]
- Results from the one-step virus growth cycle experiments, PFU/ml (coxsackievirus B1): < 1×10^6 PFU/ml

Compound: O=[N+]([O-])c1ccc(O)c(NC(=S)Nc2ccccc2)c1 [Example 15]
- Results from the one-step virus growth cycle experiments, % of inhibition (coxsackievirus B1): 93.87%
- Results from the one-step virus growth cycle experiments, PFU/ml (coxsackievirus B1): 4.6×10^7 PFU/ml
